The values below come from ChEMBL document CHEMBL3046336, “Assessment of the impact of insecticides on Anagrus nilaparvatae (Pang et Wang) (Hymenoptera: Mymanidae), an egg parasitoid of the rice planthopper, Nilaparvata lugens (Hemiptera: Delphacidae)” (Crop Prot, 2008).

Molecules are shown by their SMILES.

The nature of series [1]: Acute oral toxicity against female adult Anagrus nilaparvatae in petridish under laboratory conditions assessed as mortality compound treated as emulsible concentrate with acetone and Triton X-100 measured after 8 hr. Conditions: in vivo.
The nature of series [2]: Residual toxicity against compound treated rice leaves-fed adult Anagrus nilaparvatae assessed as mortality measured on day 7 post insecticide treatment to plant. Conditions: in vivo.
Series [3] in a line: Acute contact toxicity against adult Anagrus nilaparvatae assessed as dead parasitoid wasps compound treated for 1 hr measured after 8 hr wash-out period.
Series [4] can be described thus: Chronic toxicity against female adult Anagrus nilaparvatae in petridish under laboratory conditions assessed as reduction in longetivity compound treated as emulsible concentrate with acetone and Triton X-100 relative to untreated control. Details: scale not given: the % may be the effect or the level left.
A short description of series [5]: Chronic toxicity against female adult Anagrus nilaparvatae in petridish under laboratory conditions assessed as reduction in fecundity compound treated as emulsible concentrate with acetone and […] relative to untreated control. Details: scale not given: the % may be the effect or the level left.
Series [6] can be described thus: Acute oral toxicity against female adult Anagrus nilaparvatae in petridish under laboratory conditions assessed as mortality compound treated as emulsible concentrate with acetone and Triton X-100 measured after 1 to 8 hr. Conditions: in vivo.
Series [7] can be described thus: Acute oral toxicity against female adult Anagrus nilaparvatae in petridish under laboratory conditions assessed as mortality compound treated as emulsible concentrate with acetone and Triton X-100 measured after 2 hr. Conditions: in vivo.
Series [8] in a line: Acute oral toxicity against female adult Anagrus nilaparvatae in petridish under laboratory conditions assessed as mortality compound treated as emulsible concentrate with acetone and Triton X-100 measured after 4 hr. The settings on record: in vivo.
The nature of series [9]: Residual toxicity against compound treated rice leaves-fed adult Anagrus nilaparvatae assessed as mortality measured on day 0 post insecticide treatment to plant. Conditions: in vivo, oral.

Turning to `COP(N)(=O)SC` (configuration not stated) [METHAMIDOPHOS], in series [1], the mortality (as a rule, the percentage killed) at 8 h was 100%. Moreover, in series [2] (oral), the mortality at 7 day was under 10%.

Take `CC[C@H](C)[C@H]1O[C@]2(C=C[C@@H]1C)C[C@@H]1C[C@@H](C/C=C(\C)[C@@H](O[C@H]3C[C@H](OC)[C@@H](O[C@H]4C[C@H](OC)[C@@H](O)[C@H](C)O4)[C@H](C)O3)[C@@H](C)/C=C/C=C3\CO[C@@H]4[C@H](O)C(C)=C[C@@H](C(=O)O1)[C@]34O)O2.CO[C@H]1C[C@H](O[C@H]2[C@H](C)O[C@@H](O[C@@H]3/C(C)=C/C[C@@H]4C[C@@H](C[C@]5(C=C[C@H](C)[C@@H](C(C)C)O5)O4)OC(=O)[C@@H]4C=C(C)[C@@H](O)[C@H]5OC/C(=C\C=C\[C@@H]3C)[C@]54O)C[C@@H]2OC)O[C@@H](C)[C@@H]1O` [ABAMECTIN]: in [3], the LC50 was 8.499 mgAi/L.

In the case of `O=C(NC(=O)c1c(F)cccc1F)Nc1cc(Cl)c(OC(F)(F)C(F)F)c(Cl)c1` [HEXAFLUMURON], the figures for the Activity in series [4] and in series [5] were 24% and 28%, respectively. Besides, the LC50 in [3] is recorded as over 1000 mgAi/L. For the same molecule, in series [6], the mortality is 1.3%.

As to `CCOP(=S)(OCC)Oc1ncn(-c2ccccc2)n1` [TRIAZOPHOS], the mortality at 8 h in [1] came to 100%. In [2], the mortality at 7 day was 54.6%. Further, in series [3], the LC50 came out at 1.253 mgAi/L.

Regarding `COP(=O)(OC)OC=C(Cl)Cl` [DICHLORVOS], in series [1], the mortality at 8 h came to 100%. Moreover, the mortality at 2 h in series [7] was found to be 100%. In addition, in series [3], the LC50 was 15.946 mgAi/L.

Take `O=[N+]([O-])NC1=NCCN1Cc1ccc(Cl)nc1` [IMIDACLOPRID]: in series [2] (oral), the mortality at 7 day was 80.7%. Further, the LC50 in series [3] is 0.021 mgAi/L. Moreover, the Activity result in [8] is reported as “Toxic”. Moreover, the mortality at 0 day in [9] was found to be 97.6%.

Turning to `Cc1cc(C)cc(C(=O)N(NC(=O)c2ccc3c(c2C)OC(C)C3)C(C)(C)C)c1` (configuration not stated) [FUXIAN], the Activity is 29% in series [4] and 47% in [5]. Besides, the LC50 in series [3] is over 1000 mgAi/L. The mortality in [6] came to 1.1%.

Consider `N#Cc1nn(-c2c(Cl)cc(C(F)(F)F)cc2Cl)c(N)c1[S+]([O-])C(F)(F)F` (configuration not stated) [FIPRONIL], for which the mortality at 8 h in [1] came to 100%. In [2] (oral), the mortality at 7 day was found to be 50%. The LC50 in [3] stood at 0.18 mgAi/L.

Take `CN1COCN(Cc2cnc(Cl)s2)/C1=N\[N+](=O)[O-]` [THIAMETHOXAM]: in [2] (oral), the mortality at 7 day was 66.8%. Moreover, the LC50 in series [3] is recorded as 0.52 mgAi/L. Also, the Activity entry in [8] was “Toxic”.

In the case of `CNC(=O)Oc1ccccc1C(C)C` [ISOPROCARB], the LC50 in series [3] stood at 1.071 mgAi/L. Moreover, the Activity entry in series [8] is “Toxic”.

With `CC(C)N1C(=O)N(c2ccccc2)CS/C1=N\C(C)(C)C` [BUPROFEZIN], the LC50 in series [3] is recorded as over 1000 mgAi/L. Besides, the mortality in series [6] amounted to 29.4%. In addition, the mortality at 0 day in series [9] is 1.1%.

As for `CCOP(=S)(OCC)Oc1nc(Cl)c(Cl)cc1Cl` [CHLORPYRIFOS], in series [1], the mortality at 8 h is 100%. The mortality at 7 day in series [2] (oral) is under 10%. Besides, in series [3], the LC50 is given as 0.002 mgAi/L.

On to `CCOc1ccc([Si](C)(C)CCCc2ccc(F)c(Oc3ccccc3)c2)cc1` [SILAFLUOFEN], for which the mortality at 8 h in series [1] came out at 37.6%. For the same molecule, in series [2] (oral), the mortality at 7 day came to 1.1%. Further, the LC50 in series [3] turned out to be 14.22 mgAi/L.

Regarding `O=C(NC(=O)c1c(F)cccc1F)Nc1cc(Cl)c(Oc2ncc(C(F)(F)F)cc2Cl)c(Cl)c1` [CHLORFLUAZURON], the Activity was 29% in [4] and 49% in series [5]. The LC50 in series [3] was over 1000 mgAi/L. Further, in [6], the mortality stood at 4%.
